One test relates to A549 cells. Kind of test: Apoptosis detection by Annexin V-FITC/PI staining (flow cytometry). Particulars: incubation time not stated. It is filed as cell-based, human. As to the method: FITC annexin V apoptosis detection kit (BD) was used to detect apoptosis. Cells were seeded in tissue culture dishes (5000-7000 cells/dish) and allowed to adhere overnight. Next, the cells were treated with various concentrations of chalepin for 48 and 72 h. The cells were harvested, washed, and resuspended in 1x binding buffer according to the manual provided in the kit. In the next step, the cells were stained in the ratio of per 100,000 cells; staining of cells with 5 μL of FITC-annexin V and 5 μL of propidium iodide was done for 15 min. Then, 200 μL of 1× binding buffer was added to each sample. Unstained and single-stained untreated cells were also included as controls. A minimum number of 10,000 events was acquired for each replicate using Accuri C6 flow cytometer. A quadrant statistic was used to measure the population of viable, early apoptotic, late apoptotic and secondary necrotic cells. The determination betweent these different populations were obtained by estimating quantitatively the cells that were AnnexinV/PI stained.
(In general: In flow cytometry, cells or beads pass a laser one at a time.)

The subject of test [1] is MRC5 (human normal lung fibroblasts). Put plainly: SRB in vitro cytotoxicity screening (toxicity to normal cells). Particulars: Homo sapiens, MRC5, isolated compounds, 72 h, read-out: IC50 in μg/ml (μM) (MRC5) 72 h (converted). It is filed as cell-based. On the procedure:
(§1) The human cell lines A549 (lung cancer) and Ca Ski (cervical cancer) were cultured as monolayer in RPMI 1640 growth media whereas HCT-116 (colon cancer) and MRC5 (human normal lung fibroblasts) was cultured in McCoy’s 5A and EMEM medium, respectively. All cells were purchased from the […] (ATCC, USA). All the media were supplemented with 10 % v/v foetal bovine serum (FBS), 100 μg/mL penicillin/streptomycin, and 50 μg/mL amphotericin B. The cells were cultured in a 5 % CO2 incubator at 37 °C.
(§2) The monolayer cell culture was detached using accutase and the cell count was adjusted to 2.5 x10^5 -3.0 x10^5 cells/mL using medium containing feotal bovine serum. The cells were then plated into 96 wells with a cell density of 5000-7000 cells/well and then incubated for 24 h to allow adherence of cells to the base of well of the plates. The media was then removed and 200 μl of fresh media containing different concentration of various extracts or isolated compounds were added. Cisplatin was used as the positive control. The plates were incubated for 24, 48 and 72 h at 37 °C and 5 % CO2. The cytotoxicity of the extracts and isolated compounds were screened using the […] (SRB) assay. This assay was first described by Houghton in 2007 [8]. The incubation was halted by gentle addition of 50 μl ice cold 4 % trichloroacetic acid (TCA) to each well and the plates were incubated at 4 °C for 1 h. Then, the supernatant was discarded and the plates were washed with distilled water for 5 times and then air dried. SRB dye, 50 μl, (0.4 % w/v) was added into each well and the treated cells and control were incubated at room temperature for 30 min. The unbound dye was removed by rapid washing four times with 1 % acetic acid. The plates were then air dried and 100 μl of tris base (10 mM unbuffered, pH 10.5) was added and the plates were shaken at 500 rpm for 5 min to solublize the bound SRB stain. The plates were then read with an ELISA reader (Synergy H1 Hybrid) at an absorbance of 492 nm.

The next test has as its system A549 cell line. Kind of test: SRB in vitro cytotoxicity screening. It is filed as cell-based, human. As to the method: as §1, §2

Like-named read-outs stand apart in the source and are kept apart here.

With `C=CC(C)(C)c1cc2cc3c(cc2oc1=O)O[C@H](C(C)(C)O)C3` [Chalepin, chalepin], the “Annexin V positive cells (early and late apoptotic)” value in the test on A549 cells (A549, 9 μg/ml) worked out at 7.27 ± 0.16%; in the test with A549 cells (A549, 45 μg/ml), 20.6 ± 0.53%. Moreover, the IC50 in test [1] (value in brackets) was 74.5 µM; in test [1], 23.4 ± 0.6 µg/mL; in the test on A549 cell line (Homo sapiens, A549, 48 h, isolated compounds, 48 h, value in brackets, read-out: IC50 in μg/ml (μM) (A549) 48 h (converted)), 90.1 µM; in the test on A549 cell line (Homo sapiens, A549, 48 h, isolated compounds, 48 h, read-out: IC50 in μg/ml (μM) (A549) 48 h (converted)), 28.3 ± 1.06 µg/mL; in the test with A549 cell line (Homo sapiens, A549, 72 h, isolated compounds, 72 h, read-out: IC50 in μg/ml (μM) (A549) 72 h (converted)), 8.69 ± 2.43 µg/mL; with A549 cell line (Homo sapiens, A549, 72 h, read-out: IC50 in μg/ml (μM) (A549) 72 h, isolated compounds, 72 h, value in brackets) it was 27.6 µM. In the test on A549 cell line (isolated compounds, 72 h, value in brackets, read-out: IC50 in μg/ml (μM) (A549) 72 h (converted)), the IC50 is 28 µM.
